Data reported in paper PMC6704710, “Preclinical evaluation of 3D185, a novel potent inhibitor of FGFR1/2/3 and CSF-1R, in FGFR-dependent and macrophage-dominant cancer models” (Journal of Experimental & Clinical Cancer Research : CR, 2019).

Tests used:
CDK13/cyclinK(h) = target: T1, CDK13/cyclinK(h) (Homo sapiens, UniProt Q14004); experiment: Eurofins kinase panel; assay type: biochemical; conditions: read-out: Inhibition rate (%)
T1 construct: purchased Eurofins (KinaseProfiler)
Procedure: (§1) Active FGFR1–4, VEGFR1, KDR, VEGFR3, PDGFRα and PDGFRβ proteins were purchased from Eurofins (Fremont, United States), and kinase activity was assessed using ELISA, as previously reported. The broader kinase selectivity profile of 3D185 (0.01, 0.1, and 1 μM) was determined by Eurofins by screening the compound against 372 human recombinant kinases. Increasing concentrations of ATP were diluted for the kinase reaction in the ATP competition assay. CSF-1R kinase activity was analyzed using the Z’-LYTE™ Kinase Assay Kit (Thermo Fisher, United States). The assay formats are described in the SelectScreen Kinase Profiling Service Zlyte protocol. IC50 values were calculated by dose-response curve fitting using Prism (Graph Pad).

PRP4(h) = target: T2, PRP4(h) (Homo sapiens, UniProt Q13523); experiment: Eurofins kinase panel; assay type: biochemical; conditions: read-out: Inhibition rate (%)
T2 construct: purchased Eurofins (KinaseProfiler)
T2 sequence (Q13523 whole entry): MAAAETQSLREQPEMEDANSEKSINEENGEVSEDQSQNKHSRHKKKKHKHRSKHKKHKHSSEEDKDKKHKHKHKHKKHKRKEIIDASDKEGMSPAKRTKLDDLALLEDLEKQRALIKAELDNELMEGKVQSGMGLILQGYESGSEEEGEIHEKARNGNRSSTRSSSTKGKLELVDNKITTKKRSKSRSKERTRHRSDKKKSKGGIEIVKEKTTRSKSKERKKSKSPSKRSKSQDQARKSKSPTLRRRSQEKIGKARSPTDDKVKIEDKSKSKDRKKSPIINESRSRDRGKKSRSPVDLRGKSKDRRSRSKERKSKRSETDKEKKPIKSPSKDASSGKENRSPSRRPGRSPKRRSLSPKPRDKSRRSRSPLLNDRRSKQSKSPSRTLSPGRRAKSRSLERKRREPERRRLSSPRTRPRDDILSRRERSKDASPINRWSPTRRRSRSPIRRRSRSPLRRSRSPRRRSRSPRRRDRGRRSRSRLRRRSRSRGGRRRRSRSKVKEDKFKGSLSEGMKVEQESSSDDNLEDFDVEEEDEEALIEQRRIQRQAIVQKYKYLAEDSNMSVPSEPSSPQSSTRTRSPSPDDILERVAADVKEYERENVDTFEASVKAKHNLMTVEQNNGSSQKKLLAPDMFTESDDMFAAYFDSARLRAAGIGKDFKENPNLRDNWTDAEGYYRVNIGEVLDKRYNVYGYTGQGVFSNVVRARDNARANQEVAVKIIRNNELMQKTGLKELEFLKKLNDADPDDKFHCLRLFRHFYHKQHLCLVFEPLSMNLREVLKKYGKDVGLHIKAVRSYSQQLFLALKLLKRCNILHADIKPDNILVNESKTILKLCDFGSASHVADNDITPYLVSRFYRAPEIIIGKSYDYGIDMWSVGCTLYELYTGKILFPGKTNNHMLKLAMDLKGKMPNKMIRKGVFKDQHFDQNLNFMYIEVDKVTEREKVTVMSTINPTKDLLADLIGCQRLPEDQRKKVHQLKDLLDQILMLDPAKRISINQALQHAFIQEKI
Procedure: as §1

[1] = tested on: NCI-H1581 subcutaneous xenograft; assay type: in vivo; conditions: 50 mg/kg oral once daily 14 days
Procedure: […]. When the tumor volume reached 100–150 mm^3, the mice were randomly assigned to the vehicle control group (n = 12) or a treatment group (n = 6 per group). […].
The tumors were measured twice per week using a microcaliper. Tumor volume (TV) was calculated as follows: TV = (length × width^2)/2. In addition, the individual relative tumor volume (RTV) was calculated as follows: RTV = Vt / V0, where Vt is the volume on a particular day and V0 is the volume at the beginning of the treatment. The RTV is shown on the indicated days as the […] ± SEM for the indicated groups of mice. […]

TAO1(h) = target: T3, TAO1(h) (Homo sapiens, UniProt Q7L7X3); experiment: Eurofins kinase panel; assay type: biochemical; conditions: read-out: Inhibition rate (%)
T3 construct: purchased Eurofins (KinaseProfiler)
T3 sequence (Q7L7X3 1-1001): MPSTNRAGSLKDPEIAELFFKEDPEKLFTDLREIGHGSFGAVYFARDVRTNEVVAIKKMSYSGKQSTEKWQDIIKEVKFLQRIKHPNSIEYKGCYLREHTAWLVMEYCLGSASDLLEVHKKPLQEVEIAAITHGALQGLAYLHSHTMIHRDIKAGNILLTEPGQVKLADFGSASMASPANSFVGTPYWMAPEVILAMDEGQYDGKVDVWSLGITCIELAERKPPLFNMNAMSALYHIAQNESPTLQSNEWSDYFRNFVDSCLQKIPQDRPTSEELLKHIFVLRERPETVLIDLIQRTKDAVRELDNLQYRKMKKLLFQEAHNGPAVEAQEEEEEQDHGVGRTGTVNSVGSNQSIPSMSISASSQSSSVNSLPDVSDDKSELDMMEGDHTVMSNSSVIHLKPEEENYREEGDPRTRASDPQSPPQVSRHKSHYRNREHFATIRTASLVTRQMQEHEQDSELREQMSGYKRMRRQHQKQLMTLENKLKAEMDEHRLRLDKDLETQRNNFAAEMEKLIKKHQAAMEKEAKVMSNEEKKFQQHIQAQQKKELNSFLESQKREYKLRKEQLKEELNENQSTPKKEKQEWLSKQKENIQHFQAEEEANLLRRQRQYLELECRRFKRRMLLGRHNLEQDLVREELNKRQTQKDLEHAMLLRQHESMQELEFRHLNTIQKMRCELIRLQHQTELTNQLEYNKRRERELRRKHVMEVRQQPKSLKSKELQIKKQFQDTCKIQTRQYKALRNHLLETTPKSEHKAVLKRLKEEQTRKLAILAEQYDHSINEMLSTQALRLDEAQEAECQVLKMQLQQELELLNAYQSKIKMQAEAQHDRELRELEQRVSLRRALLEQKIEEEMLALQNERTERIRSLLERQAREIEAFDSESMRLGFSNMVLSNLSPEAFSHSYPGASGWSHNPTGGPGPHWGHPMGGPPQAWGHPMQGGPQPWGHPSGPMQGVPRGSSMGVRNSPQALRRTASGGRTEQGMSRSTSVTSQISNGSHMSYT

Tie2 (h) = target: T4, Tie2 (h) (Homo sapiens, UniProt Q02763); experiment: Eurofins kinase panel; assay type: biochemical; conditions: read-out: Inhibition rate (%)
T4 construct: purchased Eurofins (KinaseProfiler)
T4 sequence (Q02763 23-1124): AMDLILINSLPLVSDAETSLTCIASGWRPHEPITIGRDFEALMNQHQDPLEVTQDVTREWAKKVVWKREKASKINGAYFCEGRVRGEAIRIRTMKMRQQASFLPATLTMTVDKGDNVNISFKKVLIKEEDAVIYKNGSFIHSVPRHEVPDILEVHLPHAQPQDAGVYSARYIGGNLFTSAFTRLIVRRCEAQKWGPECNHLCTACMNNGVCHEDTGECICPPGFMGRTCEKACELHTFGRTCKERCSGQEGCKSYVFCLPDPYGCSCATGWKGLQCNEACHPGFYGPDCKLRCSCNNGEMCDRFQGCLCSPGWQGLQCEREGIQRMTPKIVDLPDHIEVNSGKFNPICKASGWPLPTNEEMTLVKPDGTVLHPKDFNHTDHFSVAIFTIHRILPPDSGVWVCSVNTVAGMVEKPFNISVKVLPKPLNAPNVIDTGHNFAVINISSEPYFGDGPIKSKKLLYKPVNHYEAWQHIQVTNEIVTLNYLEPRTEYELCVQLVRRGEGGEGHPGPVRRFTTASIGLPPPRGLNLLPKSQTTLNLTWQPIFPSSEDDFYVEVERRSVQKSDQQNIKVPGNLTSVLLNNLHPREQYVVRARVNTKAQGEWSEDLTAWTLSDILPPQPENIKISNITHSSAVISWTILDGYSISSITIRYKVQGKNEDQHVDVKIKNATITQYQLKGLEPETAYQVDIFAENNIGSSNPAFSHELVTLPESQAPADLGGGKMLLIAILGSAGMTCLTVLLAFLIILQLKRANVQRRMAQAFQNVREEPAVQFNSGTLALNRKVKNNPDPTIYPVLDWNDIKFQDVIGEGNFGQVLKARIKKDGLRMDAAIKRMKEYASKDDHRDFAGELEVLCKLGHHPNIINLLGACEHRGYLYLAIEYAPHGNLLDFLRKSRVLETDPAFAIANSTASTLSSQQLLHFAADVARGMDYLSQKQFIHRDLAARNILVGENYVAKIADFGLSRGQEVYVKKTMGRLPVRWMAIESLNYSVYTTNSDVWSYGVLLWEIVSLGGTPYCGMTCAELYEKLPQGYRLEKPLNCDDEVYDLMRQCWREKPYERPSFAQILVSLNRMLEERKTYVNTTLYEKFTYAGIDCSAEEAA

FGFR1 = target: T5, FGFR1 (Homo sapiens, UniProt P11362); experiment: Kinase inhibition assay (ELISA); assay type: biochemical
T5 construct: purchased Eurofins (Fremont, United States)
T5 sequence (P11362 22-822): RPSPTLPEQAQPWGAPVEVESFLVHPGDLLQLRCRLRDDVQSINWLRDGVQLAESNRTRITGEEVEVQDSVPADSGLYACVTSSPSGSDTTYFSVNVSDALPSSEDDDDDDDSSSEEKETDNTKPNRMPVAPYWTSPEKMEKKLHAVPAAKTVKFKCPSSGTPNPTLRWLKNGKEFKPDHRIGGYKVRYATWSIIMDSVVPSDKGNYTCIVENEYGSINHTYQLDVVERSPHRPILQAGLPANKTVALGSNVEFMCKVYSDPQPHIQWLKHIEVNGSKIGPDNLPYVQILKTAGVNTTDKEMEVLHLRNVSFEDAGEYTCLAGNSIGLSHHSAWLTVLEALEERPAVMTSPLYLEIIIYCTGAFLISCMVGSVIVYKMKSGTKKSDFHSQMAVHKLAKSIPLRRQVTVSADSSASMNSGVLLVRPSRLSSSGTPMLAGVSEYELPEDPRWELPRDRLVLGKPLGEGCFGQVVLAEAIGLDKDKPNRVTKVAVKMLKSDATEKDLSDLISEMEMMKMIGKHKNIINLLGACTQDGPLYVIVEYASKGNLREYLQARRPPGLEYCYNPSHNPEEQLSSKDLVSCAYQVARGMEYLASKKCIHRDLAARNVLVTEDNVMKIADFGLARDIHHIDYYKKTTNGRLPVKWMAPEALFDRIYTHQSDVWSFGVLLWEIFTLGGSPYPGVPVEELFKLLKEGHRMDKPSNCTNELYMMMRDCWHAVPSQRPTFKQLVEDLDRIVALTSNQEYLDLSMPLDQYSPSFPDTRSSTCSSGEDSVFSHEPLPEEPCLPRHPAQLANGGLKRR
Procedure: as §1, with “[…].” for “The broader kinase selectivity profile of 3D185 (0.01, 0.1, and 1 μM) was determined by Eurofins by screening the compound against 372 human recombinant kinases.”

CaMKI(h) = target: T6, CaMKI(h) (Homo sapiens, UniProt Q14012); experiment: Eurofins kinase panel; assay type: biochemical; conditions: read-out: Inhibition rate (%)
T6 construct: purchased Eurofins (KinaseProfiler)
T6 sequence (Q14012 whole entry): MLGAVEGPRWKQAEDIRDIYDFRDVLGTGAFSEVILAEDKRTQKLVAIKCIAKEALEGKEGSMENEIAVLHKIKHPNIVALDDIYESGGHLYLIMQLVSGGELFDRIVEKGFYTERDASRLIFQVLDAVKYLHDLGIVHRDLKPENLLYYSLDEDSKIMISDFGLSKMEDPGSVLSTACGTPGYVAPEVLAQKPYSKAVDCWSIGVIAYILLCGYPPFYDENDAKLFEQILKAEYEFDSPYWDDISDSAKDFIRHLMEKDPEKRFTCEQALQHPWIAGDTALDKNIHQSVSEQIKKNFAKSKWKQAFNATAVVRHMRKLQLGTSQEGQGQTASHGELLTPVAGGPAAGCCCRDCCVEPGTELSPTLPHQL

PBMC (CSF-2) = experiment: Macrophage survival (CCK-8); assay type: cell-based; conditions: Homo sapiens, 168 h, 7 days
Procedure: Murine bone marrow-derived macrophages (BMDMs) and PBMCs were used for cell viability studies. BMDMs were harvested by flushing the tibias and femurs of 6- to 8-week-old C57BL/6 mice and depleting red blood cells (RBCs) by RBC lysis (Biogems). For BMDM survival, the cells were cultured for 7 days in RPMI 1640 containing 10% fetal bovine serum (FBS), 100 U/mL penicillin, 100 μg/mL streptomycin and 100 ng/mL mouse CSF-1 (or CSF-2) with or without the tested compounds. PBMCs were obtained from HemaCare and cultured for 7 days in RPMI 1640 containing 10% fetal bovine serum (FBS), 100 U/mL penicillin, 100 μg/mL streptomycin and 100 ng/mL human CSF-1 (or CSF-2) with or without the tested compounds. Cell viability was measured using the CCK-8 assay. For IL-4/IL-13-induced macrophage survival analysis, viable cells were counted by trypan blue exclusion.

ACK1(h) = target: T7, ACK1(h) (Homo sapiens, UniProt Q07912); experiment: Eurofins kinase panel; assay type: biochemical; conditions: read-out: Inhibition rate (%)
T7 construct: purchased Eurofins (KinaseProfiler)
T7 sequence (Q07912 whole entry): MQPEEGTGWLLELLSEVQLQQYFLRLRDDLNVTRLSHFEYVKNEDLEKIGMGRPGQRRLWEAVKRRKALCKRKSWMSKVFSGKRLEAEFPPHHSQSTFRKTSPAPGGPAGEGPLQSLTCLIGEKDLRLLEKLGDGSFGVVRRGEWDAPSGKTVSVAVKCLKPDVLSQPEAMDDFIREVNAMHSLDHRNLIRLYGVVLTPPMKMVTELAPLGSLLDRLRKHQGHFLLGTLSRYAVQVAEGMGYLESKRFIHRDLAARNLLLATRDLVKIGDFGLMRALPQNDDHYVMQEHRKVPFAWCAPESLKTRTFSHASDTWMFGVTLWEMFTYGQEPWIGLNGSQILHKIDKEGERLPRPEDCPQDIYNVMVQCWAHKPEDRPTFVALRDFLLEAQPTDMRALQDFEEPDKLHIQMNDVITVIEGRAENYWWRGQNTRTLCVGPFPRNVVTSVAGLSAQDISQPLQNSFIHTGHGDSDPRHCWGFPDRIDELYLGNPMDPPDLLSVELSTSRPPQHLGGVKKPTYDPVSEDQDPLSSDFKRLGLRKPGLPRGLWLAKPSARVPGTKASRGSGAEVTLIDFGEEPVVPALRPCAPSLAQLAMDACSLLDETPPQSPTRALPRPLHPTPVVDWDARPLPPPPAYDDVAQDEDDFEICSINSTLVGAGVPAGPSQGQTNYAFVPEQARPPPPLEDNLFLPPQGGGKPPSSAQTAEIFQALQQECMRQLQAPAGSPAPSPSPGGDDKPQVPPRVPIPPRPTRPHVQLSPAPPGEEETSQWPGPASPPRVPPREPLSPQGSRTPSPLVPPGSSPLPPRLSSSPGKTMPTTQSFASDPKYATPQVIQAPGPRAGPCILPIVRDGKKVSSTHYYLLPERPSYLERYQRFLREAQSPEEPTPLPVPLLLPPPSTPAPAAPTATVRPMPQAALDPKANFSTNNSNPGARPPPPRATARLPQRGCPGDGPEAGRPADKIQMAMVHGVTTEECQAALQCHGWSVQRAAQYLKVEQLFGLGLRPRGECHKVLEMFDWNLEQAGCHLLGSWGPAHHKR

PASK(h) = target: T8, PASK(h) (Homo sapiens, UniProt Q96RG2); experiment: Eurofins kinase panel; assay type: biochemical; conditions: read-out: Inhibition rate (%)
T8 construct: purchased Eurofins (KinaseProfiler)

Q: For COc1cc(OC)c(Cl)c(-c2ccc3c(NC(=O)c4ccc(N5CCNC(C)(C)C5)cc4)n[nH]c3n2)c1Cl [3D185], which inhibition at 0.01 µM (CDK13/cyclinK(h); 10 nM) is on record?
A: The inhibition at 0.01 µM was -16%.

Q: What about the inhibition at 0.1 µM (CDK13/cyclinK(h); 100 nM) of the same compound?
A: Its inhibition at 0.1 µM is 8%.

Q: And the inhibition at 1 µM (CDK13/cyclinK(h); 1000 nM)?
A: The inhibition at 1 µM was 1%.

Q: And the inhibition at 0.01 µM (PRP4(h); 10 nM)?
A: The inhibition at 0.01 µM was -8%.

Q: And the inhibition at 0.1 µM (PRP4(h); 100 nM)?
A: Its inhibition at 0.1 µM is -9%.

Q: What about the inhibition at 1 µM (PRP4(h); 1000 nM) of the same compound?
A: The inhibition at 1 µM was -1%.

Q: What about the “tumor growth inhibition rate” value [1] of the same compound?
A: Its value is 96.4%.

Q: What about the inhibition at 0.01 µM (TAO1(h); 10 nM) of the same compound?
A: The inhibition at 0.01 µM was -2%.

Q: What about the inhibition at 0.1 µM (TAO1(h); 100 nM) of the same compound?
A: Its inhibition at 0.1 µM is 6%.

Q: What about the inhibition at 1 µM (TAO1(h); 1000 nM) of the same compound?
A: The inhibition at 1 µM was 21%.

Q: What about the inhibition at 0.01 µM (Tie2 (h); 10 nM) of the same compound?
A: Its inhibition at 0.01 µM is 19%.

Q: And the inhibition at 0.1 µM (Tie2 (h); 100 nM)?
A: The inhibition at 0.1 µM was 64%.

Q: And the inhibition at 1 µM (Tie2 (h); 1000 nM)?
A: The inhibition at 1 µM was 95%.

Q: And the mode of inhibition (FGFR1; ATP competition assay)?
A: The mode of inhibition was “ATP-competitive inhibitor”.

Q: And the “selectivity for FGFR over PDGFRα, PDGFRβ, VEGFR1 and VEGFR3” value (FGFR1; kinase assays)?
A: Its value is > 2000 fold.

Q: What about the IC50 (FGFR1; mean ± SD) of the same compound?
A: Its IC50 is 0.5 nM.

Q: And the inhibition at 0.01 µM (CaMKI(h); 10 nM)?
A: Its inhibition at 0.01 µM is 11%.

Q: What about the inhibition at 0.1 µM (CaMKI(h); 100 nM) of the same compound?
A: The inhibition at 0.1 µM was 14%.

Q: What about the inhibition at 1 µM (CaMKI(h); 1000 nM) of the same compound?
A: The inhibition at 1 µM was 64%.

Q: What about the IC50 (PBMC (CSF-2)) of the same compound?
A: Its IC50 is > 1000 nM.

Q: What about the inhibition at 0.01 µM (ACK1(h); 10 nM) of the same compound?
A: The inhibition at 0.01 µM was 1%.

Q: What about the inhibition at 0.1 µM (ACK1(h); 100 nM) of the same compound?
A: The inhibition at 0.1 µM was 37%.

Q: What about the inhibition at 1 µM (ACK1(h); 1000 nM) of the same compound?
A: Its inhibition at 1 µM is 90%.

Q: What about the inhibition at 0.01 µM (PASK(h); 10 nM) of the same compound?
A: Its inhibition at 0.01 µM is -15%.

Q: And the inhibition at 0.1 µM (PASK(h); 100 nM)?
A: The inhibition at 0.1 µM was 1%.

Q: What about the inhibition at 1 µM (PASK(h); 1000 nM) of the same compound?
A: Its inhibition at 1 µM is 10%.
